The values that follow come from patent US20230279379A1, “METHODS AND MICROFLUIDIC DEVICE FOR PRODUCING EXTRACELLULAR VESICLES” (THE BOARD OF TRUSTEES OF THE UNIVERSITY OF ILLINOIS, priority 2022, published 2023).

What all share (assay type): cell-based
Test [1] deals with membrane-cytoskeleton attachment in MSCs. As to the kind of experiment: Force for membrane tether formation by AFM. The settings on record: CK869 treatment for 2 hours; within 4 hours of cell adhesion. As for the experimental part: Measurement of Force for Membrane Tether Formation by Atomic Force Microscopy (AFM). Membrane tethering force was measured by using 3D-BIO AFM (Asylum Research, Oxford Instruments) with TR400PSA cantilevers (OTR4; spring constant=30 pN/nm). Indentation depth for each measurement was 4 μm with a velocity of 2 μm/s, and the force curve for each measurement was recorded by the AFM software (AR14). For each cell, 25-50 force curves were analyzed. In force mode, the piezotranducer (PZT) was set to drive the cantilever to approach, touch, make an indentation, and retract over a predefined distance in the optical axis perpendicular to the cell surface. The force curve was generated from the recorded vertical-axis movement of the PZT and the deflection of the cantilever with a known dimension and a spring constant. In the force curve representing the retraction of the cantilever from a cell, a sudden release of force occurred at the rupture of a membrane tether was quantified via a custom MATLAB program.

Test [2] concerns Primary human MSCs. As to the kind of experiment: EV secretion per cell from MSCs on hydrogel substrates, nanoparticle tracking analysis. As to conditions: 5 μM CK869, ~4 hour adhesion, EV collection after 24 hours.
For test [3], the system named is CD63-K2S^+ MVBs in D1 mouse MSCs. As to the kind of experiment: Intracellular CD63-K2S+ MVB transport by TIRF microscopy. The settings on record: Arp2/3 inhibition by CK869. The source says: Lentiviral-Mediated Expression of CD63 Fused with Fluorescent Proteins. Katushka2S (far-red fluorescent protein) was fused with CD63 in a lentiviral expression vector (CD63-K2S vector) and expressed in D1 MSCs according to known methods. The sequence for pHLuorin2 (pH-sensitive green fluorescent protein) was synthesized by GenScript and exchanged with the Katushka2S in the same vector using restriction enzyme cloning. The resulting CD63-pHLuorin2 lentiviral vector was transduced in D1 MSCs in a similar method as the CD63-K2S vector. Cells were selected by treatment with 5 μg/mL puromycin over 3 days and confirmed to express fluorescent signal versus non-transduced cells.
Total Internal Reflection Fluorescence (TIRF) Imaging of Cells on Substrates. To covalently bond crosslinked PEG-DA hydrogel to a thin glass surface, acrylate groups were attached to glass coverslips by silanization. […]
CD63-Katushka2S Data Analysis. […] Intracellular bodies were determined using Gaussian smoothing and local background intensity thresholding (with automatically determined thresholds) to detect surfaces followed by tracking their position (x, y) over time (t). […] Multivescular body (MVB) area was computed for each time t and reported as the mean area across total track time T. Tracks were then analyzed via a custom MATLAB (R2017b, MathWorks) program. Track MSD was calculated as […]

As for `COc1ccc(N2C(=O)CSC2c2cccc(Br)c2)c(OC)c1` (centres unmarked) [CK869], the “force of membrane tether formation” value in test [1] is reported as “slightly decreased tethering on the soft hydrogel”. The “EV secretion on the soft hydrogel” value in test [2] (soft hydrogel) is recorded as “to a lesser but significant extent”. For the same molecule, the “EV secretion on the stiff hydrogel” value in test [2] (stiff hydrogel) is “increased EV secretion on the stiff hydrogel”. The “transport exponent α” value in test [3] is recorded as around 0.5. In test [3] (soft and stiff substrate), the “MVB transport (tracks, <MSD> vs t, D0.4s)” value is listed as “significantly enhanced transport on either substrate”.
